# Measurements from patent EP4768499A1, “MACROCYCLIC PEPTIDE COMPOUND HAVING CELL MEMBRANE PERMEABILITY AND METABOLIC STABILITY, AND LIBRARY CONTAINING SAME” (Chugai Seiyaku Kabushiki Kaisha, priority 2023, dated 2025).
# Starred links: 1 amine or outer side, 2 acyl side, 3 side chain; linkers in the order of their positions; H or OH if unused. Positions of bridges follow the written chain, without caps; N, C: chain ends. Non-standard residues stand in square brackets, D forms with d. Residues, ends and D or L forms follow the SMILES beside them. *: point of attachment. NMedβ3hAla = C[C@H](CC(=O)[*:2])N(C)[*:1]; NMeF = CN[C@@H](Cc1ccccc1)C(=O)O; NMeI = CC[C@H](C)[C@H](NC)C(=O)O; NMeT = CN[C@H](C(=O)O)[C@@H](C)O; hPhe = N[C@@H](CCc1ccccc1)C(=O)O; NMeβAla = CN(CCC(=O)[*:2])[*:1]; NMeD = CN[C@@H](CC(=O)O)C(=O)O; NMeL = CN[C@@H](CC(C)C)C(=O)O; NMeV = CN[C@H](C(=O)O)C(C)C; NMeAbu = CC[C@H](NC)C(=O)O; NMeA = CN[C@@H](C)C(=O)O; Piperidide = C1CCN(*)CC1; dNMeA = CN[C@H](C)C(=O)O; Abu = CC[C@H](N)C(=O)O; NBuGly = CCCCNCC(=O)O; βAla = NCCC(=O)O; Sar = CNCC(=O)O; tBu = CC(C)(C)*
# How the values were obtained:
# [1] = Membrane permeability test using Caco-2 cells with preincubation; type: in vitro ADME; conditions: Caco-2; preincubation 20 to 24 hours; Apical FaSSIF/HBSS pH 6.0, Basal HBSS 4% BSA pH 7.4; 180 minutes; read-out: Caco2 Papp
# Caco-2 cells = assay: as above; type: in vitro ADME; conditions: Caco-2 cells, preincubation 20 to 24 hours; apical FaSSIF/HBSS 1% DMSO pH 6.0, basal HBSS 4% BSA pH 7.4; basal sample at 180 minutes
# [2] = Metabolic stability test: liver microsomal stability assay; type: in vitro ADME, mouse; conditions: mouse liver microsomes 0.5 mg protein/mL, compound 1 µM; for microsomal CLint at 1 µM: male, pH 7.4, presence of NADPH, read-out: Mouse Hepatic Microsome CLh,int NADPH(+); for Mouse Hepatic Microsome CLh,int NADPH(-): absence of NADPH
Compound,Papp A→B [1] [×10⁻⁶ cm/s],Caco2 Papp (10^-6 cm/sec) (Caco-2 cells),microsomal CLint at 1 µM [2] [µL/min/mg],"Mouse Hepatic Microsome CLh,int NADPH(-) [2] [µL/min/mg Protein]"
CC[C@H]1C(=O)N[C@@H](COC(C)(C)C)C(=O)N(C)[C@@H](C(C)C)C(=O)N(C)[C@@H](C)C(=O)N(C)[C@H](C)CC(=O)N[C@H](C(C)C)C(=O)N(C)[C@@H](CC(C)C)C(=O)N[C@@H](C)C(=O)N(C)[C@@H](C(C)C)C(=O)N(C)[C@@H](CC(C)C)C(=O)NCC(=O)N(C)[C@@H]([C@@H](C)O)C(=O)N(C)[C@@H](Cc2ccccc2)C(=O)N1C [pd147] (cyclo(A[NMeV][NMeL]G[NMeT][NMeF][NMeAbu]S(tBu)[NMeV][NMeA][NMedβ3hAla][dV][NMeL])),0.26,0.26 10^-6 cm/sec,13.1,14.8
CC[C@H](C)[C@@H]1NC(=O)[C@H](CC(C)C)N(C)C(=O)[C@H](C)N(C)C(=O)[C@H](C)NC(=O)C[C@@H](C)N(C)C(=O)[C@H](CC(C)C)N(C)C(=O)[C@H](C)N(C)C(=O)CN(C)C(=O)[C@H]([C@@H](C)O)NC(=O)[C@H](Cc2ccccc2)N(C)C(=O)[C@H](CC(C)C)N(C)C(=O)[C@H](C(C)C)NC(=O)[C@H]([C@@H](C)CC)N(C)C1=O [pd148] (cyclo(A[NMeA][NMeL]I[NMeI]V[NMeL][NMeF]T[Sar][NMeA][NMeL][NMedβ3hAla])),0.12,0.12 10^-6 cm/sec,25.2,16.8
CC[C@@H]1NC(=O)[C@H](Cc2ccccc2)N(C)C(=O)[C@@H]2CCCN2C(=O)[C@H](CC(C)C)N(C)C(=O)[C@H](C(C)C)NC(=O)[C@H](CC(C)C)N(C)C(=O)[C@H]([C@@H](C)O)NC(=O)[C@H](Cc2ccccc2)N(C)C(=O)CN(C)C(=O)C[C@@H](C)N(C)C(=O)[C@H](C(C)C)NC(=O)[C@H](CC)N(C)C(=O)[C@H](C)N(C)C1=O [pd149] (cyclo([Abu][NMeA][NMeAbu]V[NMedβ3hAla][Sar][NMeF]T[NMeL]V[NMeL]P[NMeF])),0.2,0.20 10^-6 cm/sec,10.8,1.5
CC[C@H]1C(=O)N(C)[C@H](C)CC(=O)N(C)[C@H](C)C(=O)N(C)[C@@H](C)C(=O)N(C)[C@@H](Cc2ccccc2)C(=O)N[C@@H](C(C)C)C(=O)N(C)[C@@H](CC(C)C)C(=O)N(C)[C@@H]([C@@H](C)O)C(=O)N(C)CC(=O)N[C@@H](C)C(=O)N(C)[C@@H](CC(C)C)C(=O)N[C@@H](COC(C)(C)C)C(=O)N(C)[C@@H](Cc2ccccc2)C(=O)N1C [pd150] (cyclo(A[NMeL]S(tBu)[NMeF][NMeAbu][NMedβ3hAla][dNMeA][NMeA][NMeF]V[NMeL][NMeT][Sar])),0.29,0.29 10^-6 cm/sec,15.2,4.2
CC[C@H](C)[C@@H]1NC(=O)[C@H]([C@@H](C)CC)N(C)C(=O)[C@@H](C)NC(=O)C[C@@H](C(=O)N2CCCCC2)N(C)C(=O)[C@H](C(C)C)NC(=O)[C@H](Cc2ccccc2)N(C)C(=O)[C@H](COC(C)(C)C)NC(=O)[C@H](CC(C)C)N(C)C(=O)[C@H](C)NC(=O)CN(C)C(=O)[C@H](CC(C)C)N(C)C(=O)[C@H](C)N(C)C(=O)[C@H](Cc2ccccc2)N(C)C1=O [pd151] ([dA][NMeI]I[NMeF][NMeA][NMeL][Sar]A[NMeL]S(tBu)[NMeF]V[NMeD]-Piperidide; lactam N-13),0.39,0.39 10^-6 cm/sec,29.6,22.4
CC[C@H](C)[C@@H]1NC(=O)[C@H](Cc2ccccc2)N(C)C(=O)[C@H](CC(C)C)N(C)C(=O)[C@H](CC(C)C)NC(=O)[C@H](C)N(C)C(=O)C[C@@H](C(=O)N2CCCCC2)N(C)C(=O)[C@H](C)N(C)C(=O)[C@H](CC(C)C)NC(=O)[C@H](CC(C)C)N(C)C(=O)CNC(=O)[C@H]([C@@H](C)CC)N(C)C(=O)[C@H](Cc2ccccc2)N(C)C(=O)[C@H](C)NC1=O [pd152] ([NMeA]L[NMeL][NMeF]IA[NMeF][NMeI]G[NMeL]L[NMeA][NMeD]-Piperidide; lactam N-13),1.02,1.02 10^-6 cm/sec,40.2,32.5
CC[C@H](C)[C@@H]1NC(=O)[C@H]([C@@H](C)CC)N(C)C(=O)[C@@H](C)NC(=O)C[C@@H](C(=O)N2CCCCC2)N(C)C(=O)[C@H](Cc2ccccc2)N(C)C(=O)[C@H](C(C)C)NC(=O)[C@H](C)N(C)C(=O)[C@H](CC(C)C)N(C)C(=O)[C@H](C)NC(=O)CN(C)C(=O)[C@H](CC(C)C)N(C)C(=O)[C@H](C)N(C)C(=O)[C@H](Cc2ccccc2)N(C)C1=O [pd153] ([dA][NMeI]I[NMeF][NMeA][NMeL][Sar]A[NMeL][NMeA]V[NMeF][NMeD]-Piperidide; lactam N-13),0.2,0.20 10^-6 cm/sec,15.1,26.0
CCCCN1CC(=O)N(C)[C@@H](Cc2ccccc2)C(=O)N[C@@H](COC(C)(C)C)C(=O)N(C)[C@@H](CC(C)C)C(=O)NCCC(=O)N(C)[C@@H](C)C(=O)N(C)[C@@H]([C@@H](C)CC)C(=O)N[C@@H](CC(C)C)C(=O)N(C)[C@H](C(=O)N2CCCCC2)CC(=O)N(C)CCC(=O)N(C)[C@@H](CC(C)C)C(=O)N[C@@H]([C@@H](C)CC)C(=O)N(C)[C@@H](Cc2ccccc2)C1=O [pd154] ([NMeβAla][NMeL]I[NMeF][NBuGly][NMeF]S(tBu)[NMeL][βAla][NMeA][NMeI]L[NMeD]-Piperidide; lactam N-13),0.82,0.82 10^-6 cm/sec,41.7,34.3
CC[C@H](C)[C@H]1C(=O)NCC(=O)N(C)[C@@H](CC(C)C)C(=O)N(C)[C@@H](C(C)C)C(=O)N(C)[C@@H](C)C(=O)N(C)[C@H](C(=O)N2CCCCC2)CC(=O)N(C)[C@@H](C)C(=O)N[C@@H](CC(C)C)C(=O)N(C)[C@@H](CC(C)C)C(=O)N[C@@H](COC(C)(C)C)C(=O)N(C)[C@@H](Cc2ccccc2)C(=O)N[C@@H](C)C(=O)N(C)[C@@H](Cc2ccccc2)C(=O)N1C [pd155] ([NMeA]L[NMeL]S(tBu)[NMeF]A[NMeF][NMeI]G[NMeL][NMeV][NMeA][NMeD]-Piperidide; lactam N-13),0.87,0.87 10^-6 cm/sec,48.8,37.2
CC[C@H](C)[C@@H]1NC(=O)[C@H](CC(C)C)N(C)C(=O)CN(C)C(=O)C[C@@H](C(=O)N2CCCCC2)N(C)C(=O)CNC(=O)[C@H](C)N(C)C(=O)[C@H](C(C)C)N(C)C(=O)[C@H](C)N(C)C(=O)[C@H](Cc2ccccc2)N(C)C(=O)[C@H](CC(C)C)NC(=O)[C@H](Cc2ccccc2)N(C)C(=O)[C@H](C(C)C)NC(=O)[C@H](CC(C)C)N(C)C1=O [pd156] ([Sar][NMeL]I[NMeL]V[NMeF]L[NMeF][NMeA][NMeV][NMeA]G[NMeD]-Piperidide; lactam N-13),0.39,0.39 10^-6 cm/sec,34.1,23.7
CC(C)C[C@@H]1NC(=O)[C@H](Cc2ccccc2)N(C)C(=O)[C@H](C)N(C)C(=O)[C@H](CC(C)C)N(C)C(=O)CN(C)C(=O)[C@H](C(C)C)N(C)C(=O)[C@H](CC(C)C)N(C)C(=O)[C@H](C(C)C)N(C)C(=O)[C@H](C(C)C)NC(=O)[C@H](CC(C)C)N(C)C(=O)[C@@H](C(C)C)NC(=O)C[C@@H](C(=O)N2CCCCC2)N(C)C(=O)[C@H](C)N(C)C1=O [pd157] ([dV][NMeL]V[NMeV][NMeL][NMeV][Sar][NMeL][NMeA][NMeF]L[NMeA][NMeD]-Piperidide; lactam N-13),1.42,1.42 10^-6 cm/sec,31.7,24.9
CC(C)C[C@@H]1NC(=O)[C@H](CC(C)C)N(C)C(=O)[C@H]([C@@H](C)O)NC(=O)[C@H](C(C)C)N(C)C(=O)[C@H](Cc2ccccc2)N(C)C(=O)[C@@H](C(C)C)NC(=O)C[C@@H](C(=O)N2CCCCC2)N(C)C(=O)[C@H](C)N(C)C(=O)[C@H](Cc2ccccc2)N(C)C(=O)[C@H](C)NC(=O)[C@H](COC(C)(C)C)NC(=O)[C@H](CC(C)C)N(C)C(=O)CN(C)C1=O [pd158] ([dV][NMeF][NMeV]T[NMeL]L[Sar][NMeL]S(tBu)A[NMeF][NMeA][NMeD]-Piperidide; lactam N-13),0.44,0.44 10^-6 cm/sec,19.3,13.7
CCCCN1CC(=O)N(C)[C@@H](CC(C)C)C(=O)N[C@@H]([C@@H](C)O)C(=O)N(C)[C@@H](CC(C)C)C(=O)N2CCC[C@H]2C(=O)N[C@@H](CCc2ccccc2)C(=O)N[C@@H]([C@@H](C)CC)C(=O)N(C)[C@H](C(=O)N2CCCCC2)CC(=O)N(C)[C@@H](CC(C)C)C(=O)N[C@@H](COC(C)(C)C)C(=O)N(C)[C@@H](C(C)C)C(=O)N[C@@H]([C@@H](C)CC)C(=O)N2CCC[C@H]2C1=O [pd159] ([NMeL]S(tBu)[NMeV]IP[NBuGly][NMeL]T[NMeL]P[hPhe]I[NMeD]-Piperidide; lactam N-13),0.64,0.64 10^-6 cm/sec,49.5,42.0
